Columns and labels:
Conditions in all cases: alone or combined, 24 hours
[1] = system: melanoma cell A375; assay: MTT assay, melanoma cell A375; type: cell-based
Description: (§1) Melanoma cell line A375 was seeded on a 96-well plate, with 100 μl of cell suspension in each well. The culture medium was DMEM supplemented with 10% FBS and 2 mM glutamate. […] 24 hours after adding the compound, the cell survival rate was assessed using the MTT assay, and the combination index (CI) of the combined pharmaceutical of HF and ATS was calculated using the Calcusyn software.

[2] = system: gastric cancer cell MGC803; assay: MTT assay, gastric cancer cell MGC803; type: cell-based
Description: as §1, with “Gastric cancer” for “Melanoma”, “MGC803” for “A375”

[3] = system: colon cancer cell HCT-116; assay: MTT assay, colon cancer cell HCT-116; type: cell-based, Human
Description: as §1, with “Human colon cancer” for “Melanoma”, “HCT-116” for “A375”, “software. Tumor cell survival rate=the OD value of the experimental group/the OD value of the control group×100%” for “software.”

[4] = system: breast cancer cell MCF-7; assay: MTT assay, breast cancer cell MCF-7; type: cell-based
Description: as §1, with “Breast cancer” for “Melanoma”, “MCF-7” for “A375”

[5] = system: liver cancer cell HepG2; assay: MTT assay, liver cancer cell HepG2; type: cell-based
Description: as §1, with “Liver cancer” for “Melanoma”, “HepG2” for “A375”

[6] = HF 10 nM, ATS/DAT/ASU/ATM 160 μM
[7] = HF 20 nM, ATS/DAT/ASU/ATM 320 μM
[8] = HF 40 nM, ATS/DAT/ASU/ATM 640 μM

C[C@H]1[C@H](OC(=O)CCC(=O)O)O[C@@H]2O[C@@]3(C)CC[C@H]4[C@H](C)CC[C@@H]1[C@@]24OO3 [ASU, artesunate]
Cell death rate (%) ([1]; HF 10 nM, lactone 160 μM): 16.15 ± 4.90% | Cell death rate (%) ([1]; HF 40 nM, lactone 640 μM): 47.59 ± 3.93% | Cell death rate (%) ([2]; HF 10 nM, lactone 160 μM): 1.15 ± 0.92% | Cell death rate (%) ([2]; HF 20 nM, lactone 320 μM): 5.31 ± 1.69% | Cell death rate (%) ([2]; HF 40 nM, lactone 640 μM): 43.57 ± 2.56% | Cell death rate (%) [3, 6]: 35.15 ± 3.45% | Cell death rate (%) [3, 7]: 48.31 ± 3.69% | Cell death rate (%) [3, 8]: 53.52 ± 2.46% | Cell death rate (%) ([4]; HF 10 nM, lactone 160 μM): 9.15 ± 0.92% | Cell death rate (%) ([4]; HF 20 nM, lactone 320 μM): 16.31 ± 1.69% | Cell death rate (%) ([4]; HF 40 nM, lactone 640 μM): 33.57 ± 2.56% | Cell death rate (%) ([5]; HF 10 nM, lactone 160 μM): 0.95 ± 0.72% | Cell death rate (%) ([5]; HF 20 nM, lactone 320 μM): 1.86 ± 0.09% | Cell death rate (%) ([5]; HF 40 nM, lactone 640 μM): 6.57 ± 2.06%

CO[C@H]1O[C@@H]2O[C@@]3(C)CC[C@H]4[C@H](C)CC[C@@H]([C@H]1C)[C@@]24OO3 [ATM, artemether]
Cell death rate (%) [3, 6]: 33.17 ± 4.46% | Cell death rate (%) [3, 7]: 46.32 ± 3.45% | Cell death rate (%) [3, 8]: 54.50 ± 2.50%

C[C@@H]1CC[C@H]2[C@@H](C)C(=O)O[C@@H]3O[C@@]4(C)CC[C@@H]1[C@]32OO4 [ATS, Artemisinin]
Cell death rate (%) ([1]; HF 10 nM, lactone 160 μM): 16.50 ± 4.30% | Cell death rate (%) ([1]; HF 20 nM, lactone 320 μM): 26.30 ± 1.33% | Cell death rate (%) ([1]; HF 40 nM, lactone 640 μM): 46.50 ± 3.57% | Cell death rate (%) ([2]; HF 10 nM, lactone 160 μM): 1.00 ± 3.31% | Cell death rate (%) ([2]; HF 20 nM, lactone 320 μM): 4.60 ± 5.51% | Cell death rate (%) ([2]; HF 40 nM, lactone 640 μM): 40.00 ± 3.18% | Cell death rate (%) [3, 6]: 35.89 ± 3.91% | Cell death rate (%) [3, 7]: 48.31 ± 3.61% | Cell death rate (%) [3, 8]: 54.42 ± 2.44% | Cell death rate (%) ([4]; HF 10 nM, lactone 160 μM): 9.50 ± 0.77% | Cell death rate (%) ([4]; HF 20 nM, lactone 320 μM): 16.50 ± 1.47% | Cell death rate (%) ([4]; HF 40 nM, lactone 640 μM): 33.90 ± 2.00% | Cell death rate (%) ([5]; HF 10 nM, lactone 160 μM): 0.90 ± 0.95% | Cell death rate (%) ([5]; HF 20 nM, lactone 320 μM): 1.60 ± 0.08% | Cell death rate (%) ([5]; HF 40 nM, lactone 640 μM): 6.40 ± 2.71%

C[C@H]1[C@@H](O)O[C@@H]2O[C@@]3(C)CC[C@H]4[C@H](C)CC[C@@H]1[C@@]24OO3 [DAT, dihydroartemisinin]
Cell death rate (%) ([1]; HF 10 nM, lactone 160 μM): 16.81 ± 5.83% | Cell death rate (%) ([1]; HF 20 nM, lactone 320 μM): 26.35 ± 1.64% | Cell death rate (%) ([1]; HF 40 nM, lactone 640 μM): 42.55 ± 4.42% | Cell death rate (%) ([2]; HF 10 nM, lactone 160 μM): 1.81 ± 0.83% | Cell death rate (%) ([2]; HF 20 nM, lactone 320 μM): 5.32 ± 1.65% | Cell death rate (%) ([2]; HF 40 nM, lactone 640 μM): 42.59 ± 2.43% | Cell death rate (%) [3, 6]: 36.80 ± 3.33% | Cell death rate (%) [3, 7]: 47.32 ± 3.65% | Cell death rate (%) [3, 8]: 55.57 ± 2.43% | Cell death rate (%) ([4]; HF 10 nM, lactone 160 μM): 8.81 ± 0.83% | Cell death rate (%) ([4]; HF 20 nM, lactone 320 μM): 16.32 ± 1.65% | Cell death rate (%) ([4]; HF 40 nM, lactone 640 μM): 32.59 ± 2.43% | Cell death rate (%) ([5]; HF 10 nM, lactone 160 μM): 0.81 ± 0.83% | Cell death rate (%) ([5]; HF 20 nM, lactone 320 μM): 1.72 ± 0.15% | Cell death rate (%) ([5]; HF 40 nM, lactone 640 μM): 6.59 ± 2.58%

O=C(CC1NCCCC1O)Cn1cnc2cc(Br)c(Cl)cc2c1=O (centres unmarked) [HF, Halofuginone]
Cell death rate (%) ([1]; HF 10 nM, lactone 160 μM): 5.70 ± 5.44% | Cell death rate (%) ([1]; HF 20 nM, lactone 320 μM): 17.70 ± 2.82% | Cell death rate (%) ([1]; HF 40 nM, lactone 640 μM): 35.70 ± 4.76% | Cell death rate (%) ([2]; HF 10 nM, lactone 160 μM): 8.10 ± 2.77% | Cell death rate (%) ([2]; HF 20 nM, lactone 320 μM): 20.00 ± 4.18% | Cell death rate (%) ([2]; HF 40 nM, lactone 640 μM): 29.00 ± 3.31% | Cell death rate (%) [3, 6]: 19.41 ± 4.03% | Cell death rate (%) [3, 7]: 33.06 ± 3.32% | Cell death rate (%) [3, 8]: 59.27 ± 0.41% | Cell death rate (%) ([4]; HF 10 nM, lactone 160 μM): 2.00 ± 1.28% | Cell death rate (%) ([4]; HF 20 nM, lactone 320 μM): 3.00 ± 0.55% | Cell death rate (%) ([4]; HF 40 nM, lactone 640 μM): 9.10 ± 1.79% | Cell death rate (%) ([5]; HF 10 nM, lactone 160 μM): 0.70 ± 3.11% | Cell death rate (%) ([5]; HF 20 nM, lactone 320 μM): 1.00 ± 2.06% | Cell death rate (%) ([5]; HF 40 nM, lactone 640 μM): 4.00 ± 2.21%

Reference: patent US10973823B2, “Anti-cancer composition consisting of halofuginone and sesquiterpene lactone compounds of artemisia apiacea and use thereof” (Hong Kong Baptist University, priority 2016, dated 2021)
